The nature of the data set: Stability test of paclitaxel according to varying pH values (HPLC residual percentage). The class given is physicochemical. The settings on record: for Initial residual percentage (0 hour) / Residual percentage after 24 hours / Residual percentage after 48 hours: 40° C.

Description: Paclitaxel was completely dissolved using glycofurol and Solutol HS15, and was then diluted in a McIlvaine buffer at pH 3˜8. The dilution was allowed to stand at 40° C. After 24 and 48 hours, the residual percentages of paclitaxel were measured by HPLC.

Take `CC(=O)O[C@H]1C(=O)[C@@]2(C)[C@H]([C@H](OC(=O)c3ccccc3)[C@]3(O)C[C@H](OC(=O)[C@H](O)[C@@H](NC(=O)c4ccccc4)c4ccccc4)C(C)=C1C3(C)C)[C@]1(OC(C)=O)CO[C@@H]1C[C@@H]2O` [paclitaxel]: the residual percentage is no less than 99% (around pH 5, for 48 hours) and no less than 98% (pH 4˜6, for 48 hours). Besides, the “Initial residual percentage (0 hour)” value is, setting by setting: (pH 3, McIlvaine buffer) 100%; (pH 4, McIlvaine buffer) 100%; (pH 5, McIlvaine buffer) 100%; (pH 6, McIlvaine buffer) 100%; (pH 7, McIlvaine buffer) 100%; (pH 8, McIlvaine buffer) 100%. Also, the “Residual percentage after 24 hours” value runs as follows: (pH 3, McIlvaine buffer) 99.239%; (pH 4, McIlvaine buffer) 99.025%; (pH 5, McIlvaine buffer) 99.414%; (pH 6, McIlvaine buffer) 98.765%; (pH 7, McIlvaine buffer) 96.109%; (pH 8, McIlvaine buffer) 77.297%. In addition, the “Residual percentage after 48 hours” value was 97.509% (pH 3, McIlvaine buffer); 98.221% (pH 4, McIlvaine buffer); 99.292% (pH 5, McIlvaine buffer); 98.183% (pH 6, McIlvaine buffer); 94.344% (pH 7, McIlvaine buffer); 57.38% (pH 8, McIlvaine buffer). For the setting “pH 4˜6”, the “stability of paclitaxel with the passage of time” value is “stable”.

Values taken from patent publication US20080146651A1, “Injectable Composition for the Treatment of Cancers” (priority 2004, published 2008).
